Data: patent US9302999B2, “Substituted triazoles as herbicides” (E. I. DU PONT DE NEMOURS AND COMPANY, priority 2012, dated 2016)

How the values were obtained:
Assay type in all cases: in vivo
[1] = tested on: ryegrass, Italian (Italian ryegrass, Lolium multiflorum); assay: Test D pre-/postemergence: ryegrass, Italian
Excerpt: (§1) Seeds of plant species selected from bluegrass (annual bluegrass, Poa annua), blackgrass (Alopecurus myosuroides), canarygrass (Phalaris minor), chickweed (common chickweed, Stellaria media), galium (catchweed bedstraw, Galium aparine), bromegrass, downy (downy bromegrass, Bromus tectorum), field poppy (Papaver rhoeas), field violet (Viola arvensis), foxtail, green (green foxtail, Setaria viridis), deadnettle (henbit deadnettle, Lamium amplexicaule), ryegrass, Italian (Italian ryegrass, Lolium multiflorum), kochia (Kochia scoparia), lambsquarters (Chenopodium album), oilseed rape (Brassica napus), pigweed (Amaranthus retroflexus), Russian thistle (Salsola iberica), chamomile (scentless chamomile, Matricaria inodora), speedwell (bird's-eye speedwell, Veronica persica), barley, spring (spring barley, Hordeum vulgare), wheat, spring (spring wheat, Triticum aestivum), buckwheat, wild (wild buckwheat, Polygonum convolvulus), mustard, wild (wild mustard, Sinapis arvensis), oat, wild (wild oat, Avena fatua), radish, wild (wild radish, Raphanus raphanistrum), windgrass (Apera spica-venti), barley, winter (winter barley, Hordeum vulgare), and wheat, winter (winter wheat, Triticum aestivum) were planted into a silt loam soil and treated preemergence with test chemicals formulated in a non-phytotoxic solvent mixture which included a surfactant. At the same time, these same crop and weed species were planted in pots containing the planting medium comprising spaghnum peat moss, vermiculite, wetting agent and starter nutrients and treated with postemergence applications of the test chemicals formulated in the same manner. Plants ranged in height from 2 to 18 cm (1- to 4-leaf stage).
(§2) Treated plants and controls were maintained in a controlled growth environment for 14 to 21 days after which time all species were compared to controls and visually evaluated. Plant response ratings, summarized in Table D, are based on a scale of 0 to 100 where 0 is no effect and 100 is complete control. A dash (-) response means no test result.

[2] = tested on: speedwell (bird's-eye speedwell, Veronica persica); assay: Test D pre-/postemergence: speedwell
Excerpt: as §1, §2

[3] = tested on: barley, spring (spring barley, Hordeum vulgare); assay: Test D pre-/postemergence: barley, spring
Excerpt: as §1, §2

[4] = tested on: poinsettia, wild (wild poinsettia, Euphorbia heterophylla); assay: Test F pre-/postemergence: poinsettia, wild; details: Preemergence
Excerpt: (§3) Seeds of plant species selected from corn (Zea mays), soybean (Glycine max), velvetleaf (Abutilon theophrasti), lambsquarters (Chenopodium album), poinsettia, wild (wild poinsettia, Euphorbia heterophylla), pigweed, palmer (palmer pigweed, Amaranthus palmeri), waterhemp (common waterhemp, Amaranthus rudis), surinam grass (Brachiaria decumbens), crabgrass, Brazil (Brazilian crabgrass, Digitaria horizontalis), panicum, fall (fall panicum Panicum dichotomiflorum), crabgrass, large (large crabgrass, Digitaria sanguinalis), foxtail, giant (giant foxtail, Setaria faberii), foxtail, green (green foxtail Setaria viridis), goosegrass (Eleusine indica), ragweed (common ragweed, Ambrosia elatior), barnyardgrass (Echinochloa crus-galli), sandbur (southern sandbur, Cenchrus echinatus), arrowleaf sida (Sida rhombifolia), ryegrass, Italian (Italian ryegrass, Lolium multiflorum), dayflower, VA (Virginia (VA) dayflower, Commelina virginica), field bindweed (Convolvulus arvensis), cocklebur (common cocklebur, Xanthium strumarium), morningglory (Ipomoea coccinea), nightshade (eastern black nightshade, Solanum ptycanthum), kochia (Kochia scoparia), nutsedge, yellow (yellow nutsedge, Cyperus esculentus), johnsongrass (Sorghum halepense), smartweed (ladysthumb smartweed, Polygonum persicaria), and beggarticks (hairy beggarticks, Bidens pilosa), were planted into a silt loam soil and treated preemergence with test chemicals formulated in a non-phytotoxic solvent mixture which included a surfactant. At the same time, plants selected from these crop and weed species and also pigweed (Amaranthus retroflexus), waterhemp_RES1 (ALS/Triazine resistant common waterhemp, Amaranthus rudis) and waterhemp_RES2 (ALS/HPPD resistant common waterhemp, Amaranthus rudis) were planted in pots containing a planting medium comprising spaghnum peat moss, vermiculite, wetting agent and starter nutrients treated with postemergence applications of some of the test chemicals formulated in the same manner. Plants ranged in height from 2 to 18 cm for postemergence treatments (1- to 4-leaf stage).
as §2, with “greenhouse” for “controlled growth environment”, “days,” for “days”, “E,” for “D,”

[5] = tested on: barnyardgrass (Echinochloa crus-galli); assay: Test F pre-/postemergence: barnyardgrass; details: Preemergence
Excerpt: as §3
as §2, with “greenhouse” for “controlled growth environment”, “days,” for “days”, “E,” for “D,”

[6] = tested on: ryegrass, Italian (Italian ryegrass, Lolium multiflorum); assay: Test F pre-/postemergence: ryegrass, Italian; details: Preemergence
Excerpt: as §3
as §2, with “greenhouse” for “controlled growth environment”, “days,” for “days”, “E,” for “D,”

[7] = tested on: beggarticks (hairy beggarticks, Bidens pilosa); assay: Test F pre-/postemergence: beggarticks; details: Preemergence
Excerpt: as §3
as §2, with “greenhouse” for “controlled growth environment”, “days,” for “days”, “E,” for “D,”

[8] = Postemergence, 31 g ai/ha, scale 0 to 100 (0 no effect, 100 complete control)
[9] = Postemergence, 62 g ai/ha, scale 0 to 100 (0 no effect, 100 complete control)
[10] = Postemergence, 125 g ai/ha, scale 0 to 100, 0 no effect, 100 complete control
[11] = Postemergence, 250 g ai/ha, scale 0 to 100 (0 no effect, 100 complete control)
[12] = Preemergence, 31 g ai/ha, scale 0 to 100, 0 no effect, 100 complete control
[13] = Preemergence, 62 g ai/ha, scale 0 to 100
[14] = Preemergence, 125 g ai/ha, scale 0 to 100
[15] = Preemergence, 250 g ai/ha, scale 0 to 100
[16] = Postemergence, 16 g ai/ha, scale 0 to 100
[17] = Preemergence, 16 g ai/ha, scale 0 to 100, 0 no effect, 100 complete control
[18] = 16 g ai/ha, scale 0 to 100, 0 no effect, 100 complete control
[19] = 31 g ai/ha, scale 0 to 100, 0 no effect, 100 complete control

FC(F)(F)COc1nn(-c2ccc(C(F)(F)F)cc2)nc1Cc1ccnc(C(F)(F)F)c1 [Compound 14, 4-[[5-(2,2,2-trifluoroethoxy)-2-[4-(trifluoromethyl)phenyl]-2H-1,2,3-triazol-4-yl]methyl]-2-(trifluoromethyl)pyridine]
Plant response rating: Ryegrass, Italian [1, 8]: 5
Plant response rating: Ryegrass, Italian [1, 9]: 20
Plant response rating: Ryegrass, Italian [1, 10]: 25
Plant response rating: Ryegrass, Italian [1, 11]: 35
Plant response rating, Ryegrass, Italian [1, 12]: 0
Plant response rating, Ryegrass, Italian [1, 13]: 25
Plant response rating, Ryegrass, Italian [1, 14]: 25
Plant response rating, Ryegrass, Italian [1, 15]: 50
Plant response rating: Speedwell [2, 8]: 100
Plant response rating: Speedwell [2, 9]: 100
Plant response rating: Speedwell [2, 10]: 100
Plant response rating: Speedwell [2, 11]: 100
Plant response rating, Speedwell [2, 12]: 100
Plant response rating, Speedwell [2, 13]: 100
Plant response rating, Speedwell [2, 14]: 100
Plant response rating, Speedwell [2, 15]: 100
Plant response rating: Barley, Spring [3, 8]: 25
Plant response rating: Barley, Spring [3, 9]: 25
Plant response rating: Barley, Spring [3, 10]: 30
Plant response rating: Barley, Spring [3, 11]: 40
Plant response rating, Barley, Spring [3, 12]: 0
Plant response rating, Barley, Spring [3, 13]: 10
Plant response rating, Barley, Spring [3, 14]: 15
Plant response rating, Barley, Spring [3, 15]: 20

COc1nn(-c2ccc(C(F)(F)F)cc2)nc1Cc1ccnc(C(F)(F)F)c1 [Compound 15, 4-[[5-methoxy-2-[4-(trifluoromethyl)phenyl]-2H-1,2,3-triazol-4-yl]methyl]-2-(trifluoromethyl)pyridine]
Plant response rating: Ryegrass, Italian [1, 8]: 5
Plant response rating: Ryegrass, Italian [1, 9]: 5
Plant response rating: Ryegrass, Italian [1, 10]: 10
Plant response rating: Ryegrass, Italian [1, 11]: 20
Plant response rating, Ryegrass, Italian [1, 16]: 0
Plant response rating, Ryegrass, Italian [1, 12]: 0
Plant response rating, Ryegrass, Italian [1, 13]: 5
Plant response rating, Ryegrass, Italian [1, 14]: 25
Plant response rating, Ryegrass, Italian [1, 15]: 70
Plant response rating: Speedwell [2, 8]: 100
Plant response rating: Speedwell [2, 9]: 100
Plant response rating: Speedwell [2, 10]: 100
Plant response rating: Speedwell [2, 11]: 100
Plant response rating, Speedwell [2, 16]: 100
Plant response rating: Barley, Spring [3, 8]: 15
Plant response rating: Barley, Spring [3, 9]: 25
Plant response rating: Barley, Spring [3, 10]: 30
Plant response rating: Barley, Spring [3, 11]: 40
Plant response rating, Barley, Spring [3, 16]: 10
Plant response rating, Barley, Spring [3, 12]: 0
Plant response rating, Barley, Spring [3, 13]: 0
Plant response rating, Barley, Spring [3, 14]: 10
Plant response rating, Barley, Spring [3, 15]: 15

Cc1nn(-c2ccc(C(F)(F)F)cn2)nc1Oc1ccnc(C(F)(F)F)c1 [Compound 23]
Plant response rating: Ryegrass, Italian [1, 8]: 10
Plant response rating: Ryegrass, Italian [1, 9]: 10
Plant response rating: Ryegrass, Italian [1, 10]: 10
Plant response rating: Ryegrass, Italian [1, 11]: 15
Plant response rating, Ryegrass, Italian [1, 16]: 5
Plant response rating: Speedwell [2, 8]: 10
Plant response rating: Speedwell [2, 9]: 20
Plant response rating: Speedwell [2, 10]: 50
Plant response rating: Speedwell [2, 11]: 60
Plant response rating, Speedwell [2, 16]: 5
Plant response rating: Barley, Spring [3, 8]: 0
Plant response rating: Barley, Spring [3, 9]: 10
Plant response rating: Barley, Spring [3, 10]: 10
Plant response rating: Barley, Spring [3, 11]: 15
Plant response rating, Barley, Spring [3, 16]: 0

Cc1nn(-c2ccc(C(F)(F)F)cn2)nc1Cc1cccc(C(F)(F)F)c1 [Compound 106]
Plant response rating: Ryegrass, Italian [1, 8]: 5
Plant response rating: Ryegrass, Italian [1, 9]: 5
Plant response rating: Ryegrass, Italian [1, 10]: 10
Plant response rating: Ryegrass, Italian [1, 11]: 20
Plant response rating, Ryegrass, Italian [1, 16]: 5
Plant response rating, Ryegrass, Italian [1, 12]: 0
Plant response rating, Ryegrass, Italian [1, 13]: 0
Plant response rating, Ryegrass, Italian [1, 14]: 0
Plant response rating, Ryegrass, Italian [1, 15]: 0
Plant response rating: Speedwell [2, 8]: 0
Plant response rating: Speedwell [2, 9]: 0
Plant response rating: Speedwell [2, 10]: 90
Plant response rating: Speedwell [2, 11]: 90
Plant response rating, Speedwell [2, 16]: 0
Plant response rating: Barley, Spring [3, 8]: 10
Plant response rating: Barley, Spring [3, 9]: 15
Plant response rating: Barley, Spring [3, 10]: 20
Plant response rating: Barley, Spring [3, 11]: 30
Plant response rating, Barley, Spring [3, 16]: 5
Plant response rating, Barley, Spring [3, 12]: 0
Plant response rating, Barley, Spring [3, 13]: 0
Plant response rating, Barley, Spring [3, 14]: 0
Plant response rating, Barley, Spring [3, 15]: 0

Cc1nn(-c2ccc(C(F)(F)F)cc2)nc1Oc1ccnc(C(F)(F)F)c1 [Compound 120]
Plant response rating: Ryegrass, Italian [1, 8]: 5
Plant response rating: Ryegrass, Italian [1, 9]: 10
Plant response rating: Ryegrass, Italian [1, 10]: 15
Plant response rating: Ryegrass, Italian [1, 11]: 30
Plant response rating, Ryegrass, Italian [1, 16]: 5
Plant response rating, Ryegrass, Italian [1, 17]: 0
Plant response rating, Ryegrass, Italian [1, 12]: 5
Plant response rating, Ryegrass, Italian [1, 13]: 40
Plant response rating, Ryegrass, Italian [1, 14]: 80
Plant response rating, Ryegrass, Italian [1, 15]: 100
Plant response rating: Speedwell [2, 8]: 100
Plant response rating: Speedwell [2, 9]: 100
Plant response rating: Speedwell [2, 10]: 100
Plant response rating: Speedwell [2, 11]: 100
Plant response rating, Speedwell [2, 16]: 60
Plant response rating, Speedwell [2, 17]: 0
Plant response rating: Barley, Spring [3, 8]: 10
Plant response rating: Barley, Spring [3, 9]: 15
Plant response rating: Barley, Spring [3, 10]: 15
Plant response rating: Barley, Spring [3, 11]: 30
Plant response rating, Barley, Spring [3, 16]: 5
Plant response rating, Barley, Spring [3, 17]: 0
Plant response rating, Barley, Spring [3, 12]: 0
Plant response rating, Barley, Spring [3, 13]: 5
Plant response rating, Barley, Spring [3, 14]: 10
Plant response rating, Barley, Spring [3, 15]: 20

COc1nn(-c2ccc(C(F)(F)F)cc2)nc1Cc1ccnc(C(F)F)c1 [Compound 138]
Plant response rating: Ryegrass, Italian [1, 8]: 25
Plant response rating: Ryegrass, Italian [1, 9]: 35
Plant response rating: Ryegrass, Italian [1, 10]: 40
Plant response rating: Ryegrass, Italian [1, 11]: 50
Plant response rating, Ryegrass, Italian [1, 16]: 10
Plant response rating: Speedwell [2, 8]: 80
Plant response rating: Speedwell [2, 9]: 90
Plant response rating: Speedwell [2, 10]: 98
Plant response rating: Speedwell [2, 11]: 100
Plant response rating, Speedwell [2, 16]: 80
Plant response rating: Barley, Spring [3, 8]: 20
Plant response rating: Barley, Spring [3, 9]: 25
Plant response rating: Barley, Spring [3, 10]: 35
Plant response rating: Barley, Spring [3, 11]: 40
Plant response rating, Barley, Spring [3, 16]: 10

COc1nn(-c2cccc(F)c2)nc1Cc1ccnc(C(F)(F)F)c1 [Compound 139]
Plant response rating, Poinsettia, Wild [4, 18]: 0
Plant response rating, Poinsettia, Wild [4, 19]: 20
Plant response rating, Poinsettia, Wild ([4]; 125 g ai/ha, scale 0 to 100): 75
Plant response rating, Poinsettia, Wild ([4]; 250 g ai/ha, scale 0 to 100): 80
Plant response rating, Barnyardgrass [5, 18]: 0
Plant response rating, Barnyardgrass [5, 19]: 10
Plant response rating, Barnyardgrass ([5]; 62 g ai/ha, scale 0 to 100): 10
Plant response rating, Barnyardgrass ([5]; 125 g ai/ha, scale 0 to 100): 10
Plant response rating, Barnyardgrass ([5]; 250 g ai/ha, scale 0 to 100): 98
Plant response rating, Ryegrass, Italian [6, 18]: 0
Plant response rating, Ryegrass, Italian [6, 19]: 5
Plant response rating, Ryegrass, Italian ([6]; 125 g ai/ha, scale 0 to 100): 30
Plant response rating, Ryegrass, Italian ([6]; 250 g ai/ha, scale 0 to 100): 95
Plant response rating, Beggarticks [7, 18]: 0
Plant response rating, Beggarticks [7, 19]: 0
Plant response rating, Beggarticks ([7]; 62 g ai/ha, scale 0 to 100): 0
Plant response rating, Beggarticks ([7]; 125 g ai/ha, scale 0 to 100): 0
Plant response rating, Beggarticks ([7]; 250 g ai/ha, scale 0 to 100): 0
